Assay results from patent publication US10906890B2, “Triazole phenyl compounds as agonists of the APJ receptor” (AMGEN INC., priority 2016, dated 2021).

Target: human APJ receptor (Homo sapiens (Human), UniProt P35414)
Assay: [35S]GTPγS binding assay on membranes from CHO cells stably expressing human APJ receptor
Assay type: biochemical
Settings: means of several independent experiments, read-out: Activity hAPJ SPA EC50 IP
Description: The human APJ receptor was cloned by polymerase chain reaction and the gene encoding the receptor was subcloned in pFLAG-CMV™-3 expression vector (Sigma, Saint Louis, Mo. USA) in-house at Amgen. A GTPγS binding assay was performed on membranes prepared from CHO cells stably expressing human APJ receptor. The optimum experimental conditions for the concentrations of GDP, MgCl2, and NaCl in the assay buffer were initially determined. […] Incubation was at RT for 90 min and the microplate was read using a ViewLux™ ultra HTS Microplate Imager (PerkinElmer, Inc.). All the results presented are means of several independent experiments and analyzed by non-linear regression methods using the commercially available program Prism (GraphPad, San Diego, Calif.) providing the EC50 values detailed in Table 28.

Chain of human APJ receptor (P35414 whole entry): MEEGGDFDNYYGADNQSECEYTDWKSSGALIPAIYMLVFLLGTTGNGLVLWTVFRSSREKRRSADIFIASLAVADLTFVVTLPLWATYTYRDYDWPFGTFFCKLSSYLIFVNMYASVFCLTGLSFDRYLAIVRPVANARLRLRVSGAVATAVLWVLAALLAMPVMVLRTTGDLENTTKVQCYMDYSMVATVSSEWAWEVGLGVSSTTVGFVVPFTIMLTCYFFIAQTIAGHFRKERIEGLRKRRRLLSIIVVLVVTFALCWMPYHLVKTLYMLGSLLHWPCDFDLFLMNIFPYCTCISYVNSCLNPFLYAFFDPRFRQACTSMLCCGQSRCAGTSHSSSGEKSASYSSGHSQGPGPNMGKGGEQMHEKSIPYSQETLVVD

SMILES | EC50
COc1cccc(OC)c1-n1c(NS(=O)(=O)[C@@H](C)[C@H](OC)c2ncc(C)cn2)nnc1-c1ccc2nccnc2c1 [Example 84.0, (1R,2S)-N-(4-(2,6-dimethoxyphenyl)-5-(6-quinoxalinyl)-4H-1,2,4-triazol-3-yl)-1-methoxy-1-(5-methyl-2-pyrimidinyl)-2-propanesulfonamide] | 55 nM
COc1cccc(-c2nnc(NS(=O)(=O)[C@@H](C)[C@H](OC)c3ncc(C)cn3)n2-c2c(OC)cccc2OC)c1 [Example 76.0, (1R,2S)-N-(4-(2,6-dimethoxyphenyl)-5-(3-methoxyphenyl)-4H-1,2,4-triazol-3-yl)-1-methoxy-1-(5-methyl-2-pyrimidinyl)-2-propanesulfonamide] | 0.51 nM
COc1cccc(OC)c1-n1c(NS(=O)(=O)[C@@H](C)[C@H](OC)c2ncc(C)cn2)nnc1-c1cccc2cn(C)nc12 [Example 92.0] | 60 nM
C[C@H](c1ncc(Cl)cn1)[C@H](C)S(=O)(=O)Nc1nnc(-c2ccccc2)n1C1CCOCC1 [Example 61.0, (2S,3R)-3-(5-chloro-2-pyrimidinyl)-N-(5-phenyl-4-(tetrahydro-2H-pyran-4-yl)-4H-1,2,4-triazol-3-yl)-2-butanesulfonamide] | 69 nM
COCC(COC)n1c(NS(=O)(=O)[C@@H](C)[C@H](OC)c2ncc(Cl)cn2)nnc1-c1ccccc1 [Example 96.0, (1R,2S)-1-(5-Chloro-2-pyrimidinyl)-N-(4-(1,3-dimethoxy-2-propanyl)-5-phenyl-4H-1,2,4-triazol-3-yl)-1-methoxy-2-propanesulfonamide] | 16 nM
COc1cccc(OC)c1-n1c(NS(=O)(=O)[C@@H](C)[C@H](OC)c2ncc(C)cn2)nnc1-c1ccc(C(C)(C)C)cc1 [Example 65.0, (1R,2S)—N-(5-(4-tert-Butylphenyl)-4-(2,6-dimethoxyphenyl)-4H-1,2,4-triazol-3-yl)-1-methoxy-1-(5-methyl-2-pyrimidinyl)-2-propanesulfonamide] | 230 nM
COc1ccc(-c2nnc(NS(=O)(=O)[C@@H](C)[C@H](OC)c3ncc(C)cn3)n2-c2c(OC)cccc2OC)cc1C#N [Example 75.0, (1R,2S)-N-(5-(3-cyano-4-methoxyphenyl)-4-(2,6-dimethoxyphenyl)-4H-1,2,4-triazol-3-yl)-1-methoxy-1-(5-methyl-2-pyrimidinyl)-2-propanesulfonamide] | 13 nM
C[C@H](c1ncc(Cl)cn1)[C@H](C)S(=O)(=O)Nc1nnc(-c2ccccc2)n1-c1c(F)cccc1F [Example 46.0, (2S,3R)-3-(5-chloro-2-pyrimidinyl)-N-(4-(2,6-difluorophenyl)-5-phenyl-4H-1,2,4-triazol-3-yl)-2-butanesulfonamide] | 1.7 nM
COc1cccc(OC)c1-n1c(NS(=O)(=O)[C@@H](C)[C@H](OC)c2ncc(C)cn2)nnc1-c1ccc(Oc2ccccc2)cc1 [Example 82.0, (1R,2S)-N-(4-(2,6-dimethoxyphenyl)-5-(4-phenoxyphenyl)-4H-1,2,4-triazol-3-yl)-1-methoxy-1-(5-methyl-2-pyrimidinyl)-2-propanesulfonamide] | > 4200 nM
COc1ncnc(OC)c1-n1c(NS(=O)(=O)[C@H]2CCCN(c3ncc(C)cn3)C2)nnc1-c1ccccc1 (single isomer, unassigned) [Example 29.0, (S)—N-(4-(4,6-Dimethoxypyrimidin-5-yl)-5-phenyl-4H-1,2,4-triazol-3-yl)-1-(5-methylpyrimidin-2-yl)piperidine-3-sulfonamide or (R)—N-(4-(4,6-dimethoxypyrimidin-5-yl)-5-phenyl-4H-1,2,4-triazol-3-yl)-1-(5-methylpyrimidin-2-yl)piperidine-3-sulfonamide] | 390 nM
COc1cccc(OC)c1-n1c(NS(=O)(=O)[C@@H](C)Cc2ncc(F)cn2)nnc1-c1ccccc1 (single isomer, unassigned) [Example 8.0, (2S)-N-(4-(2,6-dimethoxyphenyl)-5-phenyl-4H-1,2,4-triazol-3-yl)-1-(5-fluoro-2-pyrimidinyl)-2-propanesulfonamide or (2R)-N-(4-(2,6-dimethoxyphenyl)-5-phenyl-4H-1,2,4-triazol-3-yl)-1-(5-fluoro-2-pyrimidinyl)-2-propanesulfonamide] | 15 nM
